Data from patent publication US6444670B2 (Wyeth, priority 1998, dated 2002).

Legend:
[1] = biological target: T1, Human recombinant PTP1B (hPTP1B) (Homo sapiens, UniProt P18031); type: biochemical
T1 construct: made in house
T1 sequence (P18031 1-435): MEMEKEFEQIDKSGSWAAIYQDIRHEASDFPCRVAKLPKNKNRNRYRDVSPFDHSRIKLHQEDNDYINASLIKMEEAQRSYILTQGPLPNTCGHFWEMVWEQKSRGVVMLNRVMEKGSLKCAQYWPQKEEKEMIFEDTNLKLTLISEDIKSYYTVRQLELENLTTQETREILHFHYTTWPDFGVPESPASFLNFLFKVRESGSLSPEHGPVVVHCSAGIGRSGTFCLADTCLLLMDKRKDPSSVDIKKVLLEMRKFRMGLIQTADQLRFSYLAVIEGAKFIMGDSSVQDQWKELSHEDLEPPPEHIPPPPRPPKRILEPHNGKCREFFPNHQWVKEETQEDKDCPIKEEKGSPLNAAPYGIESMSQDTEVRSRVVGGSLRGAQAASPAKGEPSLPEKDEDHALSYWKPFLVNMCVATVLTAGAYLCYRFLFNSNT

[2] = test system: rat hepatic microsomal PTPases; settings: 50 μM compound

Compound | IC50 [1] [nM] | % Change from Control [2] [%]
9-Bromo-4-(3-bromo-methoxy-5-nitro-phenyl)-2,3-dimethyl-naphtho[2,3-b]thiophene [Example 57] | 1900 | 
Cc1sc2c(Br)c3ccccc3c(-c3cc(N)c(O)c(Br)c3)c2c1C [Example 23, 2-Amino-6-bromo-4-(9-bromo-2,3-dimethyl-naphtho[2,3-b]thiophen-4-yl)-phenol] | 743 | −26.11
Cc1sc2c(Sc3ccccc3)c3ccccc3c(-c3cc(Br)c(O[C@H](C)C(=O)O)c(Br)c3)c2c1C [Example 34, (R)-2-[2,6-Dibromo-4-(2,3-dimethyl-9-phenylsulfanyl-naphtho[2,3-b]thiophen-4-yl)-phenoxy]-propionic acid] | 100 | −63.01
Cc1c(CN2CCOCC2)sc2c(Br)c3ccccc3c(-c3cc(Br)c(OC(C)C(=O)O)c(Br)c3)c12 (centres unmarked) [Example 36, 2-[2,6-Dibromo-4-(9-bromo-3-methyl-2-morpholin-4-ylmethyl-naphtho[2,3-b]thiophen-4-yl)-phenoxy]-propionic acid] | 1340 | −67.00
CCN(CC)Cc1sc2c(Br)c3ccccc3c(-c3cc(Br)c(O[C@H](Cc4ccccc4)C(=O)O)c(Br)c3)c2c1C [Example 37, (R)-2-[2,6-Dibromo-4-(9-bromo-2-diethylaminomethyl-3-methyl-naphtho[2,3-b]thiophen-4-yl)-phenoxy]-3-phenyl-propionic acid] | 352 | −49.83
Cc1sc2c(Br)c3ccccc3c(-c3cc(Br)c(OC(Cc4ccccc4)C(=O)O)c([N+](=O)[O-])c3)c2c1C (centres unmarked) [Example 38, [2-Bromo-4-(9-bromo-2,3-dimethyl-naphtho[2,3-b]thiophen-4-yl)-2-nitro-phenoxy]-3-phenyl-propionic acid] | 299 | −57.74
Cc1sc2cc3ccccc3c(-c3ccc(O[C@H](Cc4ccccc4)C(=O)O)c(C(C)C)c3)c2c1C [Example 41, (R)-2-[4-(2,3-dimethyl-naphtho[2,3-b]thiophen-4-yl)-2-isopropyl-phenoxy]-3-phenyl-propionic acid] | 729 | −39.60
Cc1sc2cc3ccccc3c(-c3ccc(O[C@H](Cc4ccccc4)C(=O)O)c(C4CCCC4)c3)c2c1C [Example 45, (R)-2-[2-Cyclopentyl-4-(2,3-dimethyl-naphtho[2,3-b]thiophen-4-yl)-phenoxy]-3-phenyl-propionic acid] | 203 | −94.50
Cc1sc2cc3ccccc3c(-c3ccc(O[C@H](Cc4ccccc4)C(=O)O)c(F)c3)c2c1C [Example 51, (R)-2-[4-(2,3-Dimethyl-naphtho[2,3-b]thiophen-4-yl)-2-fluoro-phenoxy]-3-phenyl-propionic acid] | 2210 | 
Cc1oc2cc3ccccc3c(-c3cc(Br)c(O[C@H](Cc4ccccc4)C(=O)O)c(Br)c3)c2c1C [Example 54, (2R)-2-[2,6-Dibromo-4-(2,3-dimethyl-naphtho[2,3-b]furan-4-yl)-phenoxy]-3-phenyl-propionic acid] | 982 | 
Cc1sc2c(Br)c3ccccc3c(-c3cc(C(C)C)c(O[C@H](Cc4ccccc4)C(=O)O)c(C(C)C)c3)c2c1C [Example 55, (2R)-2-[4-(9-Bromo-2,3-dimethyl-naphtho[2.3-b]thiophen-4-yl)-2,6-diisopropyl-phenoxy]-3-phenyl-propionic acid] | 59 | 
Cc1cc(-c2c3ccccc3c(Br)c3sc(C)c(C)c23)cc(C)c1O[C@H](Cc1ccccc1)C(=O)NCC(=O)O [Example 62, {(2R)-2-[4-(9-Bromo-2,3-dimethyl-naphtho[2,3-b]thiophen-4-yl)-2,6-dimethyl-phenoxy]-3-phenyl-propionylamino}-acetic acid] | 28 | 
CCc1cc(-c2c3ccccc3c(Br)c3sc(C)c(C)c23)cc(CC)c1O[C@H](Cc1ccccc1)C(=O)NCC(=O)O [Example 63, {(2R)-2-[4-(9-Bromo-2,3-dimethyl-naphtho[2,3-b]thiophen-4-yl)-2,6-diethyl-phenoxy]-3-phenyl-propionylamino}-acetic acid] | 138 | 
Cc1sc2c(Br)c3ccccc3c(-c3ccc(O[C@H](Cc4ccccc4)C(=O)O)cc3)c2c1C [Example 64, (2R)-2-[4-(9-Bromo-2,3-dimethyl-naphtho[2,3-b]thiophen-4-yl)-phenoxy]-3-phenyl-propionic acid] | 390 | 
CCc1cc(-c2c3ccccc3cc3sc(C)c(C)c23)cc(CC)c1O[C@H](Cc1ccccc1)C(=O)NCC(=O)O [Example 68, {(2R)-2-[4-(2,3 -Dimethyl-naphtho[2,3-b]thiophen-4-yl)-2,6-diethyl-phenoxy]-3-phenyl-propionylamino}-acetic acid] | 80 | 
CCc1cc(-c2c3ccccc3c(Br)c3oc(C)c(C)c23)cc(CC)c1O[C@H](Cc1ccccc1)C(=O)O [Example 70, (R)-2-[4-(9-Bromo-2-,3-dimethyl-naphtho[2,3-b]furan-4-yl)-2.6-diethyl-phenoxy]-3-phenyl-propionic acid] | 330 | 
Cc1sc2cc3ccccc3c(-c3ccc(O[C@H](C)C(=O)O)c(C4CCCC4)c3)c2c1C [Example 71, (R)-2-[2-Cyclopentyl-4-(2-,3-dimethyl-naphtho[2,3-b]thiophen-4-yl)-phenoxy]-propionic acid] | 1190 | 
Cc1sc2c(Br)c3ccccc3c(-c3ccc(O[C@H](C)C(=O)O)c(C4CCCC4)c3)c2c1C [Example 72, (R)-2-[4-(9-Bromo-2-,3-dimethyl-naphtho[2,3-b]thiophen-4-yl)-2-cyclopentyl-phenoxy]-propionic acid] | 480 | 
CCc1cc(-c2c3ccccc3cc3sc(C)c(C)c23)ccc1O[C@H](Cc1ccccc1)C(=O)O [Example 76, (R)-2-[4-(2-,3-Dimethyl-naphtho[2,3-b]thiophen-4-yl)-2-ethyl-phenoxy]-3-phenyl-propionic acid] | 450 | 
CCc1cc(-c2c3ccccc3cc3oc(C)c(C)c23)cc(Br)c1O [Example 78, 2-Bromo-4-(2-,3-dimethyl-naphtho[2,3-b]furan-4-yl)-6-ethyl-phenol] | 270 | 
CCc1cc(-c2c3ccccc3cc3oc(C)c(C)c23)cc(Br)c1O[C@H](Cc1ccccc1)C(=O)O [Example 79, (R)-2-[2-Bromo-4-(2-,3-dimethyl-naphtho[2,3-b]furan-4-yl)-6-ethyl-phenoxy]-3-phenyl-propionic acid] | 780 | 
CCCc1cc(-c2c3ccccc3c(Br)c3sc(C)c(C)c23)ccc1O[C@H](Cc1ccccc1)C(=O)O [Example 83, (R)-2-[4-(9-Bromo-2-,3-dimethyl-naphtho[2,3-b]thiophen-4-yl)-2-propyl-phenoxy]-3-phenyl-propionic acid] | 130 | 
CCN(CC)Cc1sc2c(Br)c3ccccc3c(-c3cc(C(C)C)c(O[C@H](Cc4ccccc4)C(=O)O)c(C(C)C)c3)c2c1C [Example 88, (2R)-2-[4-(9-Bromo-2-diethylaminomethyl-3-methyl-naphtho[2,3-b]thiophen-4-yl)-2,6-diisopropyl-phenoxy]-3-phenyl-propionic acid] | 320 | 
Ammonium molybdate tetrahydrate [reference compound] | 8700 | 
[2-Bromo-4-(9-bromo-2,3-dimethyl-naphtho[2,3-b]thiophen-4-yl)-2-nitro-phenoxy]-acetic acid [Example 24] |  | −65.31
